By melting point is commonly meant the temperature, or range, at which the solid turns liquid.

One series addresses T1, Human COX I (Homo sapiens, UniProt P23219).
T1 construct: A 2.0 kb fragment containing the coding region of either human or murine COX-I or human or murine COX-II; made in house; host or cells: SF9 insect cells (recombinant baculovirus, transfer vector pVL1393)
The series is described as follows: COX I activity in vitro (PGE2 ELISA, recombinant enzyme). Format: biochemical. Particulars: arachidonic acid 10 μM, pre-incubation 10-20 minutes; read-out: Human COX I ID50. As for the experimental part:
(§1) A 2.0 kb fragment containing the coding region of either human or murine COX-I or human or murine COX-II was cloned into a BamH1 site of the baculovirus transfer vector pVL1393 (Invitrogen) to generate the baculovirus transfer vectors for COX-I and COX-II in a manner similar to the method of D. R. O'Reilly et al (Baculovirus Expression Vectors: A Laboratory Manual (1992)). Recombinant baculoviruses were isolated by transfecting 4 μg of baculovirus transfer vector DNA into SF9 insect cells ([…]) along with 200 ng of linearized baculovirus plasmid DNA by the calcium phosphate method. See M. D. Summers and G. E. Smith, A Manual of Methods for Baculovirus Vectors and Insect Cell Culture Procedures, Texas Agric. Exp. Station Bull. 1555 (1987). Recombinant viruses were purified by three rounds of plaque purification and high titer (10E7-10E8 pfu/ml), stocks of virus were prepared. For large scale production, SF9 insect cells were infected in 10 liter fermentors (0.5×10^6/ml) with the recombinant baculovirus stock such that the multiplicity of infection was 0.1. After 72 hours the cells were centrifuged and the cell pellet homogenized in Tris/Sucrose (50 mM: 25%, pH 8.0) containing 1% 3-[(3-cholamidopropyl)dimethylammonio]-1-propanesulfonate (CHAPS). The homogenate was centrifuged at 10,000×G for 30 minutes, and the resultant supernatant was stored at −80° C. before being assayed for COX activity.
(§2) COX activity was assayed as PGE2 formed/μg protein/time using an ELISA to detect the prostaglandin released. CHAPS-solubilized insect cell membranes containing the appropriate COX enzyme were incubated in a potassium phosphate buffer (50 mM, pH 8.0) containing epinephrine, phenol, and heme with the addition of arachidonic acid (10 μM). Compounds were pre-incubated with the enzyme for 10-20 minutes prior to the addition of arachidonic acid. Any reaction between the arachidonic acid and the enzyme was stopped after ten minutes at 37° C./room temperature by transferring 40 μl of reaction mix into 160 μl ELISA buffer and 25 μM indomethacin. The PGE2 formed was measured by standard ELISA technology (Cayman Chemical).
Background: ELISA stands for enzyme-linked immunosorbent assay.

The next series concerns the target T2, Human COX II (Homo sapiens, UniProt P35354).
T2 construct: A 2.0 kb fragment containing the coding region of either human or murine COX-I or human or murine COX-II; made in house; host or cells: SF9 insect cells (recombinant baculovirus, transfer vector pVL1393)
T2 sequence (P35354 18-604): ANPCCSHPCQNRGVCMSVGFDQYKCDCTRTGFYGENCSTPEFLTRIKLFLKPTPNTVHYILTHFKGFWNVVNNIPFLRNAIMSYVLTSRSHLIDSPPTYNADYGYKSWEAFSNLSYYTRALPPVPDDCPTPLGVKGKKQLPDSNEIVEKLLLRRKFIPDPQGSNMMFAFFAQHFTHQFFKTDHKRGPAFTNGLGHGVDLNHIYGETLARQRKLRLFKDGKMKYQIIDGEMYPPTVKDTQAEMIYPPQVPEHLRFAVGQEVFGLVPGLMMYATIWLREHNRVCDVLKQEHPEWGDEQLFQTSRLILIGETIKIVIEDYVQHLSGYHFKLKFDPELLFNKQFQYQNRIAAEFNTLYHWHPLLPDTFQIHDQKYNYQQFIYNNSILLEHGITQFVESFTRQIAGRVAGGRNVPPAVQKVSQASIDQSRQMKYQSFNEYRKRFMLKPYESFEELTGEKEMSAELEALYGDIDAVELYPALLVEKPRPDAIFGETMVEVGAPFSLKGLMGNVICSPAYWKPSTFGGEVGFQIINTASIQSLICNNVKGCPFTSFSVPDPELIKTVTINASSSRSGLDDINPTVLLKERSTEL
Put plainly: COX II activity in vitro (PGE2 ELISA, recombinant enzyme). Particulars: arachidonic acid 10 μM, pre-incubation 10-20 minutes; read-out: Human COX II ID50. The format is biochemical. As for the experimental part:
The COX II inhibition activity of the compounds of this invention illustrated in the Examples was determined by the following methods.
as §1, §2

pIC50: −log10 of the molar value.

T1 sequence (P23219 24-599): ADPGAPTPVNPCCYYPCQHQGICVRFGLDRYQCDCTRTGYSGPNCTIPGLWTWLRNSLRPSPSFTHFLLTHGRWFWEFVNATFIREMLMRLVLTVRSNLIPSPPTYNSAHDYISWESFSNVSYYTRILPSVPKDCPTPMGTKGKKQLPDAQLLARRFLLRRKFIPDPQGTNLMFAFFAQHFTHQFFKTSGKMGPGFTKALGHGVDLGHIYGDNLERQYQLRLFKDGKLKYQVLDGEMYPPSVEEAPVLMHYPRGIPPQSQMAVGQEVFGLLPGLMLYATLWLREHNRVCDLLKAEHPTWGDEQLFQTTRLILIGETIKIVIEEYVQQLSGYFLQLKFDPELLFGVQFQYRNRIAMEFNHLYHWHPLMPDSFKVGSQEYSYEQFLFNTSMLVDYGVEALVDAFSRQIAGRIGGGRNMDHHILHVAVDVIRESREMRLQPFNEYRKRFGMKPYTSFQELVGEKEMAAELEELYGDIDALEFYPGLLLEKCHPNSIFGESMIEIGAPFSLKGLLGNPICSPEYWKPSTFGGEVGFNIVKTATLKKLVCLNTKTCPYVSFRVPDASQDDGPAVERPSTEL

`CS(=O)(=O)c1ccc(-c2nc(COc3ccccc3)[nH]c2-c2ccc(F)cc2)cc1` [Example 2, 5-(4-Fluorophenyl)-4-(4-methylsulfonylphenyl)-2-phenoxymethyl-1H-imidazole] had a melting point of 189 to 190 °C. For the same compound, the pIC50 at Human COX I is under 4.00. For the same compound, on Human COX II, the pIC50 was 6.70.
Taken in the same sequence, the figures for `CS(=O)(=O)c1ccc(-c2nc(/C=C/c3ccccc3)[nH]c2-c2ccc(F)cc2)cc1` [Example 3, 5-(4-Fluorophenyl)-4-(4-methylsulfonylphenyl)-2-(2-phenyl-trans-eth-1-ene)-1H-imidazole] were 221 to 224 °C, 5.66 and 6.70.
The like results for `CS(=O)(=O)c1ccc(-c2nc(-c3cc4ccccc4o3)[nH]c2-c2ccc(F)cc2)cc1` [Example 4, 2-(2-Benzofuryl)-5-(4-fluorophenyl)-4-(4-methylsulfonylphenyl)-1H-imidazole] were, in that order, 235 to 237 °C, under 4.00 and 6.30.
Taken in the same sequence, the figures for `CC(C)c1nc(-c2ccc(S(C)(=O)=O)cc2)c(-c2ccc(F)cc2)[nH]1` [Example 5, 5-(4-Fluorophenyl)-2-isopropyl-4-(4-methylsulfonylphenyl)-1H-imidazole] were 214 to 215 °C, under 4.00 and 5.92.
In the case of `CS(=O)(=O)c1ccc(-c2nc(-c3ccco3)[nH]c2-c2ccc(F)cc2)cc1` [Example 7, 5-(4-Fluorophenyl)-2-(2-furyl)-4-(4-methylsulfonylphenyl)-1H-imidazole], the melting point was 244 to 246 °C (dec.). Also, on Human COX I, the pIC50 was under 4.00. For the same compound, the pIC50 on Human COX II is 5.32.
Taken in the same sequence, the figures for `CS(=O)(=O)c1ccc(-c2nc(CO)[nH]c2-c2ccc(F)cc2)cc1` [Example 9, 5-(4-Fluorophenyl)-2-hydroxymethyl-4-[4-(methylsulfonyl)phenyl]imidazole] were 115 to 117 °C, under 4.00 and 5.29.
The like results for `COc1ccc(-c2[nH]c(C(F)(F)F)nc2-c2ccc(S(C)(=O)=O)cc2)cc1F` [Example 10, 5-(3-Fluoro-4-methoxyphenyl)-4-[4-(methylsulfonyl)phenyl]-2-(trifluoromethyl)-1H-imidazole] were, in that order, 228 to 234 °C, 4.20 and 5.92.
As to `CS(=O)(=O)c1ccc(-c2nc(C(F)(F)F)[nH]c2-c2ccccc2Cl)cc1` [Example 12, 5-(2-Chlorophenyl)-4-[4-(methylsulfonyl)phenyl]-2-(trifluoromethyl)-1H-imidazole], the pIC50 at Human COX I was under 4.00; on Human COX II it was 5.89.
In the case of `CS(=O)(=O)c1ccc(-c2nc(C(F)(F)F)[nH]c2-c2ccc3ccccc3c2)cc1` [Example 14], the melting point lay in the range of 228 to 230 °C. The pIC50 at Human COX I was 5.70. Further, on Human COX II, the pIC50 was 6.22.
As for `COc1ccc(-c2[nH]c(C(F)(F)F)nc2-c2ccc(S(C)(=O)=O)cc2)cc1` [Example 15, 5-(4-Methoxyphenyl)-4-[4-(methylsulfonyl)phenyl]-2-(trifluoromethyl)-1H-imidazole], the pIC50 on Human COX I was 5.25; on Human COX II, 5.54.
`Cc1ccc(-c2[nH]c(C(F)(F)F)nc2-c2ccc(S(C)(=O)=O)cc2)cc1` [Example 16, 5-(4-Methylphenyl)-4-[4-(methylsulfonyl)phenyl]-2-(trifluoromethyl)-1H-imidazole] registered a melting point of 234 to 238 °C. In addition, the pIC50 on Human COX I was 4.70. Besides, on Human COX II, the pIC50 was 6.22.
For the compound `CS(=O)(=O)c1ccc(-c2nc(C(F)(F)F)[nH]c2-c2ccc(F)cc2F)cc1` [Example 17, 5-(2,4-Difluorophenyl)-4-[4-(methylsulfonyl)phenyl]-2-(trifluoromethyl)-1H-imidazole], the pIC50 is under 4.00 on Human COX I and 6.52 on Human COX II.
The like results for `CS(=O)(=O)c1ccc(-c2nc(C(F)(F)F)[nH]c2-c2ccc(F)c(F)c2)cc1` [Example 18, 5-(3,4-Difluorophenyl)-4-[4-(methylsulfonyl)phenyl]-2-(trifluoromethyl)-1H-imidazole] were, in that order, under 4.00 and 6.70.
`CS(=O)(=O)c1ccc(-c2nc(C(F)(F)F)[nH]c2-c2ccccc2)cc1` [Example 19, 4-[4-(Methylsulfonyl)phenyl]-5-phenyl-2-(trifluoromethyl)-1H-imidazole] returned a melting point of 228 to 230 °C. Also, the pIC50 on Human COX I was under 4.00. Further, the pIC50 on Human COX II was 6.30.
Taken in the same sequence, the figures for `CS(=O)(=O)c1ccc(-c2nc(-c3ccoc3)[nH]c2-c2ccc(F)cc2)cc1` [Example 20, 5-(4-Fluorophenyl)-2-(3-furyl)-4-(4-methylsulfonylphenyl)-1H-imidazole] were 233 to 235 °C (dec.), under 4.00 and 4.39.
Regarding `Cn1c(C(F)(F)F)nc(-c2ccc(S(C)(=O)=O)cc2)c1-c1ccc(F)cc1` [Example 44, 5-(4-Fluorophenyl)-1-methyl-4-[4-(methylsulfonyl)phenyl]-2-(trifluoromethyl)-1H-imidazole], the pIC50 at Human COX I is under 4.00; on Human COX II, 4.89.
The like results for `Cc1cccc(-c2[nH]c(C(F)(F)F)nc2-c2ccc(S(N)(=O)=O)cc2)c1` [Example 60, 5-(3-Methylphenyl)-4-[4-(sulfonamido)phenyl]-2-trifluoromethyl-1H-imidazole] were, in that order, 5.21 and 7.00.
Taken in the same sequence, the figures for `CS(=O)(=O)c1ccc(-c2nc(C(F)(F)F)[nH]c2-c2cccnc2)cc1` [Example 62, 4-(4-(Methylsulfonyl)phenyl]-5-(3-pyridyl)-2-(trifluoromethyl)-1H-imidazole] were under 4.00 and 5.62.
The like results for `CS(=O)(=O)c1ccc(-c2nc(C(F)(F)F)[nH]c2-c2cccc(C#N)c2)cc1` [Example 63] were, in that order, under 4.00 and 5.89.
On to `C=CCOCc1nc(-c2ccc(F)cc2)c(-c2ccc(S(C)(=O)=O)cc2)[nH]1` [Example 80, 4-(4-Fluorophenyl)-5-[4-(methylsulfonyl)phenyl]-2-[(2-propenyloxy)methyl]-1H-imidazole], for which the pIC50 on Human COX I was under 4.00; on Human COX II, 5.54.
With `CCOCc1nc(-c2ccc(F)cc2)c(-c2ccc(S(C)(=O)=O)cc2)[nH]1` [Example 81, 2-(Ethoxymethyl)-4-(4-fluorophenyl)-5-[4-(methylsulfonyl)phenyl]-1H-imidazole], the pIC50 at Human COX I is 4.11; at Human COX II, 5.48.
For `CS(=O)(=O)c1ccc(-c2[nH]c(COCc3ccccc3)nc2-c2ccc(F)cc2)cc1` [Example 82, 4-(4-Fluorophenyl)-5-[4-(methylsulfonyl)phenyl]-2-(phenyl-methoxymethyl)-1H-imidazole], the values for the pIC50 at Human COX I and on Human COX II were under 4.00 and 6.15, respectively.
For `CC(O)(c1nc(-c2ccc(F)cc2)c(-c2ccc(S(C)(=O)=O)cc2)[nH]1)C(F)(F)F` (stereo not drawn) [Example 91, 4-(4-Fluorophenyl)-α-methyl-5-[4-(methylsulfonyl)phenyl]-α-(trifluoromethyl)-1H-imidazole-2-methanol], the pIC50 on Human COX I was under 4.00; at Human COX II, 5.23.
The like results for `CS(=O)(=O)c1ccc(-c2[nH]c(S(=O)(=O)c3ccccc3)nc2-c2ccc(F)cc2)cc1` [Example 92, 4-(4-Fluorophenyl)-5-[4-(methylsulfonyl)phenyl]-2-(phenyl-sulfonyl)-1H-imidazole] were, in that order, under 4.00 and 5.52.

These data come from patent publication US6426360B1, “4,5-substituted imidazolyl compounds for the treatment of inflammation” (G D Searle & Co., priority 1994, dated 2002).
